“Also recorded” adds a separate entry of the source.
Experiments:
[1] = system: human lung carcinoma LX-1; test: Activity against human lung carcinoma LX-1; details: in vivo
[2] = system: Human Colon Adenocarcinoma CX-1; test: Human Colon Adenocarcinoma CX-1 tumor weight in nu/nu mice; format: in vivo; details: for Tumor wt, staging day (mean ± 1SD): before treatment (day 33 post implant); for δT/δC: ≤20% active
Method: In this example Compound 19 was tested against reticulum cell sarcoma M5076. For this and certain other tests below, test results are shown as δT/δC. Utilizing this protocol the difference in tumor weight before treatment and after treatment of the treated animals compared to the control animals is determined.
Compound 19 was further tested against Human Colon Adenocarcinoma CX-1. Activity against this tumor system is indicated at a δT/δC value of less than 20.

L1210 cells = test: Life span of BDF1 mice inoculated ip with 10^6 L1210 leukemia cells; format: in vivo, mouse
Method: As illustrative examples of use of the compounds of the invention the following examples are given. […] These standard tests utilize protocols developed under the auspices of the Developmental Therapeutics Program, Division of Cancer Treatment, National Cancer Institute, Bethesda, Md., U.S.A. Except as otherwise indicated the tests conform to these protocols and are evaluated utilizing criteria defined by the protocols.
Values below 25% are considered capable of producing effective therapy, those below 10% are considered good and those below 5% are considered very good. This expresses the percent of the cells which survived treatment based upon the original cells in the inoculum. Those tests expressed as increases in life span (% ILS) indicate the increased life span of the drug treated group compared to a control group.
As an indicator of reproducible activity, compounds of the invention and other known cancer chemotherapeutic agents were screened against L1210 lymphoid leukemia in vivo utilizing the mouse as a test species. Normal NCI protocols for this test require 10^5 seed cells of the L1210 cell line.
Cytosine Arabinoside must be given every three hours.
Mice were inoculated intraperitoneally on day 0 with a million cells of murine leukemia L1210. Drug was given qd days 1, 4 and 7. Increased life span is the mean increase in the treated group presented as a percentage of the mean life span of control mice.
Mice were inoculated intraperitoneally on day 0 with a million cells of murine leukemia L1210. Drugs were given qd days 1, 3, 5 and 7. Increased life span is presented as a percentage of the mean life span of control mice.

L1210/ARA-C cells = test: Cytosine Arabinoside resistant L1210 cells surviving treatment; format: in vivo, mouse
[3] = system: L1210/6MP, 6TG, 6TGR cells; test: Life span of mice inoculated with L1210 resistant to 6MP, 6TG, 6TGR; format: in vivo, mouse; details: for ILS: L1210/6MP,6TG; for activity against drug resistant cells (words): mouse, in vivo
[4] = day 12, ip 138.4 mg/kg/inj, qd days 1,3,5,7,9
[5] = day 12, ip 138.4 mg/kg/inj, qd days 1,4,7,10,13,16
[6] = day 12, ip 173.0 mg/kg/inj, qd days 1,3,5,7
[7] = day 15, ip 138.4 mg/kg/inj, qd days 1,3,5,7,9,11
[8] = day 15, ip 138.4 mg/kg/inj, qd days 1,4,7,10,13
[9] = day 16, ip 173.0 mg/kg/inj, qd days 1,3,5,7,9
[10] = day 16, ip 173.0 mg/kg/inj, qd days 1,4,7,10
[11] = day 17, ip 173.0 mg/kg/inj, qd days 1,4,7,10,13
[12] = ip 37 mg/kg/inj, bid days 1,3,5,7
[13] = ip 62 mg/kg/inj, bid days 1,4,7
[14] = ip 104 mg/kg/inj, qd days 1,4,7
[15] = ip 173 mg/kg/inj, qd days 1,4,7
[16] = oral 37 mg/kg/inj, bid days 1,3,5,7
[17] = oral 62 mg/kg/inj, bid days 1,4,7
[18] = listed as 2-amino-9-β-D-ribofuranosyl-9H-purine-6-sulfinamide

Nc1nc([S+](N)[O-])c2ncn([C@@H]3O[C@H](CO)[C@@H](O)[C@H]3O)c2n1 (mixture of isomers) [Compound 19, 2-amino-9-β-D-ribofuranosyl-9H-purine-6-sulfinamide]
activity against human lung carcinoma LX-1 [1]: No activity
Tumor wt, staging day (mean ± 1SD) ([2]; ip 138.4 mg/kg/inj group, qd days 1,3,5,7,9): 226 mg
Tumor wt, staging day (mean ± 1SD) ([2]; ip 138.4 mg/kg/inj group, qd days 1,3,5,7,9,11): 220 mg
Tumor wt, staging day (mean ± 1SD) ([2]; ip 138.4 mg/kg/inj group, qd days 1,4,7,10,13): 225 mg
Tumor wt, staging day (mean ± 1SD) ([2]; ip 138.4 mg/kg/inj group, qd days 1,4,7,10,13,16): 215 mg
Tumor wt, staging day (mean ± 1SD) ([2]; ip 173.0 mg/kg/inj group, qd days 1,3,5,7): 222 mg
Tumor wt, staging day (mean ± 1SD) ([2]; ip 173.0 mg/kg/inj group, qd days 1,3,5,7,9): 229 mg
Tumor wt, staging day (mean ± 1SD) ([2]; ip 173.0 mg/kg/inj group, qd days 1,4,7,10): 226 mg
Tumor wt, staging day (mean ± 1SD) ([2]; ip 173.0 mg/kg/inj group, qd days 1,4,7,10,13): 226 mg
Tumor wt, evaluation day (mean ± 1SD) [2, 4]: 278 ± 114 mg
δT/δC [2, 4]: 25.0%
Tumor wt, evaluation day (mean ± 1SD) [2, 5]: 296 ± 186 mg
δT/δC [2, 5]: 38.9%
Tumor wt, evaluation day (mean ± 1SD) [2, 6]: 302 ± 144 mg
δT/δC [2, 6]: 38.5%
Tumor wt, evaluation day (mean ± 1SD) [2, 7]: 358 ± 125 mg
δT/δC [2, 7]: 46.6%
Tumor wt, evaluation day (mean ± 1SD) [2, 8]: 375 ± 155 mg
δT/δC [2, 8]: 50.7%
Tumor wt, evaluation day (mean ± 1SD) [2, 9]: 364 ± 254 mg
δT/δC [2, 9]: 39.9%
Tumor wt, evaluation day (mean ± 1SD) [2, 10]: 402 ± 187 mg
δT/δC [2, 10]: 52.1%
Tumor wt, evaluation day (mean ± 1SD) [2, 11]: 279 ± 121 mg
δT/δC [2, 11]: 15.8%
Increased life span (L1210 cells; 37 mg/kg/inj injected, qd days 1,3,5,7): 74%
Increased life span (L1210 cells; 62 mg/kg/inj injected, qd days 1,3,5,7): 123%
Increased life span (L1210 cells; 104 mg/kg/inj injected, qd days 1,3,5,7): 136%
Increased life span (L1210 cells; 173 mg/kg/inj injected, qd days 1,3,5,7): 189%
dose at which significant activity is indicated (L1210 cells; delivered only once on day 1, ip): about 37 mg per kg
T/C (%) (L1210 cells; ip 13 mg/kg, qd day 1): 106%
T/C (%) (L1210 cells; ip 22 mg/kg, qd day 1): 106%
Life span (% T/C) (L1210 cells; ip 22 mg/kg/inj, bid days 1,3,5,7): 193%
Life span (% T/C) (L1210 cells; ip 22 mg/kg/inj, bid days 1,4,7): 161%
Life span (% T/C) (L1210 cells; ip 22 mg/kg/inj, bid days 1-7): 200%
T/C (%) (L1210 cells; ip 37 mg/kg, qd day 1): 128%
% ILS (L1210 cells; [12]): 79%
Life span (% T/C) (L1210 cells; [12]): 236%
Life span (% T/C) (L1210 cells; ip 37 mg/kg/inj, bid days 1,4,7): 216%
Life span (% T/C) (L1210 cells; ip 37 mg/kg/inj, bid days 1-7): 233%
Life span (% T/C) (L1210 cells; ip 37 mg/kg/inj, qd days 1,3,5,7): 174%
Increased life span (L1210 cells; ip 37 mg/kg/inj, qd days 1,4,7): 54%
Life span (% T/C) (L1210 cells; ip 37 mg/kg/inj, qd days 1,4,7): 154%
Life span (% T/C) (L1210 cells; ip 37 mg/kg/inj, qd days 1-7): 213%
T/C (%) (L1210 cells; ip 62 mg/kg, bid day 1): 184%
T/C (%) (L1210 cells; ip 62 mg/kg, qd day 1): 135%
T/C (%) (L1210 cells; ip 62 mg/kg, qid day 1): 194%
T/C (%) (L1210 cells; ip 62 mg/kg, tid day 1): 183%
Life span (% T/C) (L1210 cells; ip 62 mg/kg/inj, bid days 1,3,5,7): 285%
% ILS (L1210 cells; [13]): 88%
Life span (% T/C) (L1210 cells; [13]): 249%
long term survivors (L1210 cells; ip 62 mg/kg/inj, bid days 1-7): 2
Life span (% T/C) (L1210 cells; ip 62 mg/kg/inj, bid days 1-7, 2 long term survivors not included): 361%
Life span (% T/C) (L1210 cells; ip 62 mg/kg/inj, qd days 1,3,5,7): 223%
Increased life span (L1210 cells; ip 62 mg/kg/inj, qd days 1,4,7): 93%
Life span (% T/C) (L1210 cells; ip 62 mg/kg/inj, qd days 1,4,7): 193%
Life span (% T/C) (L1210 cells; ip 62 mg/kg/inj, qd days 1-7): 239%
T/C (%) (L1210 cells; ip 104 mg/kg, qd day 1): 151%
Life span (% T/C) (L1210 cells; ip 104 mg/kg/inj, bid days 1,4,7, 1 toxic death not included): 311%
Life span (% T/C) (L1210 cells; ip 104 mg/kg/inj, qd days 1,3,5,7): 236%
Increased life span (L1210 cells; [14]): 130%
Life span (% T/C) (L1210 cells; [14]): 230%
long term survivors (L1210 cells; ip 104 mg/kg/inj, qd days 1-7): 1
Life span (% T/C) (L1210 cells; ip 104 mg/kg/inj, qd days 1-7, 1 long term survivor not included): 307%
T/C (%) (L1210 cells; ip 173 mg/kg, qd day 1): 167%
Life span (% T/C) (L1210 cells; ip 173 mg/kg/inj, qd days 1,3,5,7): 289%
Increased life span (L1210 cells; [15]): 169%
Life span (% T/C) (L1210 cells; [15]): 269%
in vivo antitumor activity (L1210 cells; mouse, in vivo): good in vivo activity
oral activity (words) (L1210 cells): Oral activity is seen
Activity against I.P. L1210 cells, T/C (L1210 cells; oral 37 mg/kg, bid days 1,3,5,7): 148.6%
Activity against I.P. L1210 cells, T/C (L1210 cells; oral 37 mg/kg, qd days 1,4,7): 144.6%
% ILS (L1210 cells; [16]): 49%
Increased life span (L1210 cells; oral 37 mg/kg/inj, qd days 1,4,7): 45%
Activity against I.P. L1210 cells, T/C (L1210 cells; oral 62 mg/kg, bid days 1,4,7): 140.0%
Activity against I.P. L1210 cells, T/C (L1210 cells; oral 62 mg/kg, qd days 1,4,7): 144.6%
% ILS (L1210 cells; [17]): 40%
Increased life span (L1210 cells; oral 62 mg/kg/inj, qd days 1,4,7): 45%
Activity against I.P. L1210 cells, T/C (L1210 cells; oral 104 mg/kg, qd days 1,4,7): 138.5%
Increased life span (L1210 cells; oral 104 mg/kg/inj, qd days 1,4,7): 38%
Activity against I.P. L1210 cells, T/C (L1210 cells; oral 173 mg/kg, qd days 1,4,7): 138.5%
Increased life span (L1210 cells; oral 173 mg/kg/inj, qd days 1,4,7): 38%
oral activity (words) (L1210 cells; [18]): active in both an oral and an injectable form; also recorded: orally active
% ILS (L1210 cells; single agent day 1, Compound 19 173 mg/kg, Compound 18 22 mg/kg (Table 12)): 88%
% ILS (L1210 cells; single agent day 1, Compound 19 173 mg/kg, Tiazofurin 22 mg/kg (Table 13)): 81%
L1210/ARA-C cells surviving (% of day zero inoculum) (L1210/ARA-C cells; [14]): 1.7%
L1210/ARA-C cells surviving (% of day zero inoculum) (L1210/ARA-C cells; ip 173 mg/kg/inj, qd day 1): 0.02%
L1210/ARA-C cells surviving (% of day zero inoculum) (L1210/ARA-C cells; [15]): 0.6%
efficacy against ARA-C resistant line vs parent (L1210/ARA-C cells; mouse, in vivo): greater efficacy against this resistant cell line than it did to the parent non-drug resistant L1210 cells
Activity against I.P. L1210 cells resistant to 6MP, 6TG, 6TGR, T/C ([3]; 37 mg/kg, bid days 1,3,5,7): 165.6%
Activity against I.P. L1210 cells resistant to 6MP, 6TG, 6TGR, T/C ([3]; 62 mg/kg, bid day 1): 133.3%
Activity against I.P. L1210 cells resistant to 6MP, 6TG, 6TGR, T/C ([3]; 62 mg/kg, bid days 1,4,7): 175.0%
Activity against I.P. L1210 cells resistant to 6MP, 6TG, 6TGR, T/C ([3]; 62 mg/kg, qd day 1): 127.3%
Activity against I.P. L1210 cells resistant to 6MP, 6TG, 6TGR, T/C ([3]; 62 mg/kg, tid day 1): 133.3%
Activity against I.P. L1210 cells resistant to 6MP, 6TG, 6TGR, T/C ([3]; 104 mg/kg, bid day 1): 150.0%
Activity against I.P. L1210 cells resistant to 6MP, 6TG, 6TGR, T/C ([3]; 104 mg/kg, qd day 1): 122.2%
Activity against I.P. L1210 cells resistant to 6MP, 6TG, 6TGR, T/C ([3]; 173 mg/kg, qd day 1): 144.5%
ILS [3, 12]: 66%
ILS [3, 13]: 75%
ILS [3, 16]: 0%
ILS [3, 17]: 0%
activity against drug resistant cells (words) [3]: exhibited activity against the drug resistant cells; also recorded: active
activity against drug resistant cells (words) [3, 18]: demonstrated activity against cells which have become resistant to other chemotherapeutic agents

— US5026836A, “6-sulfenamide, 6-sulfinamide and 6-sulfonamide purines, purine nucleosides, purine nucleotides, pharmaceutical compositions, and processes of making” (priority 1988, dated 1991)
